The text below walks through data of ChEMBL document CHEMBL3751784, “Synthesis of novel 1-substituted triazole linked 1,2-benzothiazine 1,1-dioxido propenone derivatives as potent anti-inflammatory agents and inhibitors of monocyte-to-macrophage differentiation” (2015).

The structures appear in SMILES notation. Calls of active or inactive are those of the source. The rule behind the calls is not given here.

In assay [1] the test system is THP-1. Briefly: Antiinflammatory activity in human THP1 cells assessed as inhibition of PMA-induced TNFalpha secretion preincubated for 2 hrs followed by PMA addition measured after 48 hrs by ELISA. In kind it is functional, cell-based.
In assay [2] the test system is THP-1. As to the kind of experiment: Inhibition of PMA-induced monocyte to macrophage differentiation in human THP1 cells assessed as reduction in cell adherence at 20 uM preincubated for 2 hrs followed by PMA addition measured after 48 hrs by phase contrast microscopic analysis. In kind it is functional, cell-based.
The test system of assay [3] is THP-1. As to the kind of experiment: Antiinflammatory activity in human THP1 cells assessed as inhibition of PMA-induced MCP-1 secretion preincubated for 2 hrs followed by PMA addition measured after 48 hrs by ELISA. In kind it is functional, cell-based.
Assay [4] is described as follows: (§1) Antiinflammatory activity in human THP1 cells assessed as inhibition of PMA-induced TNFalpha secretion at 10 uM preincubated for 2 hrs followed by PMA addition measured after 48 hrs by ELISA. In kind it is functional. The conditions noted are these: THP-1.
A short description of assay [5]: Antiinflammatory activity in human THP1 cells assessed as inhibition of PMA-induced IL-1beta secretion at 10 uM preincubated for 2 hrs followed by PMA addition measured after 48 hrs by ELISA. In kind it is functional. Conditions: THP-1.
Assay [6] can be described thus: (§2) Antiinflammatory activity in human THP1 cells assessed as inhibition of PMA-induced MCP-1 secretion at 10 uM preincubated for 2 hrs followed by PMA addition measured after 48 hrs by ELISA. Conditions: THP-1. In kind it is functional.
For assay [7], the system named is THP-1. Briefly: Antiinflammatory activity in human THP1 cells assessed as inhibition of PMA-induced IL-1beta secretion preincubated for 2 hrs followed by PMA addition measured after 48 hrs by ELISA. In kind it is functional, cell-based. A general note: In an ELISA, binding on a coated surface is turned into a signal by an enzyme label.
A short description of assay [8]: Cytotoxicity against human THP1 cells assessed as cell viability at 20 uM after 48 hrs by tryphan blue dye exclusion assay relative to control. In kind it is functional. Conditions: THP-1, 48 h, read-out: Activity.
In assay [9] the test system is THP-1. Briefly: Antiinflammatory activity in human THP1 cells assessed as inhibition of PMA-induced COX2 mRNA level preincubated for 2 hrs followed by PMA addition measured after 48 hrs by RT-PCR analysis. In kind it is functional, cell-based.
Assay [10] has as its system THP-1. The description is as §1. In kind it is functional.
The subject of assay [11] is THP-1. Described as §2. In kind it is functional.

Take `CN1C(C(=O)/C=C/c2cn(CC(=O)Nc3ccc(Cl)c(C(F)(F)F)c3)nn2)=C(O)c2ccccc2S1(=O)=O`: the inhibition entry in [1], in assay [3] and in [7] was “Dose-dependent effect” each time. The inhibition (as a rule, the percentage by which the read-out fell short of the control) in assay [2] was “inactive”. In addition, the inhibition at 10 µM in [4] was 93.2%; in assay [5], 93.6%; in [6] it was 88.4%. Further, in assay [8], the viability at 20 µM was determined as 94.3%. In assay [9], the inhibition entry is “Active”.
For `CN1C(C(=O)/C=C/c2cn(-c3ccc(F)cc3)nn2)=C(O)c2ccccc2S1(=O)=O`, the inhibition entry in assay [10] is “inactive”. For the same compound, the inhibition at 10 µM was 43.9% in assay [5] and 58.9% in assay [6]. Also, the viability at 20 µM in assay [8] was 95.3%.
For the compound `CN1C(C(=O)/C=C/c2cn(-c3ccccc3)nn2)=C(O)c2ccccc2S1(=O)=O`, the inhibition at 10 µM in assay [4] is 24%; in assay [5], 56.9%; in [6], 31.9%. For the same compound, the viability at 20 µM in [8] was 94.2%.
Consider `CN1C(C(=O)/C=C/c2cn(-c3cccc(Cl)c3)nn2)=C(O)c2ccccc2S1(=O)=O`, for which, in assay [10], the inhibition result is “inactive”. Further, the inhibition at 10 µM came to 37.3% in assay [5] and 5.4% in assay [6]. The viability at 20 µM in assay [8] turned out to be 96%.
In the same order, the values of `CN1C(C(=O)/C=C/c2cn(-c3cccc([N+](=O)[O-])c3)nn2)=C(O)c2ccccc2S1(=O)=O` are “inactive”, 25.6%, 30.7% and 92.6%.
Take `COc1cccc(-n2cc(/C=C/C(=O)C3=C(O)c4ccccc4S(=O)(=O)N3C)nn2)c1`: the inhibition result in assay [10] and in assay [11] was “inactive” each time. Further, the inhibition at 10 µM in [5] was 42.6%. In assay [8], the viability at 20 µM was found to be 94.2%.
Regarding `CN1C(C(=O)/C=C/c2cn(-c3cccc(C(F)(F)F)c3)nn2)=C(O)c2ccccc2S1(=O)=O`, the inhibition entry in [10] and in assay [11] was “inactive” in each case. Also, in assay [5], the inhibition at 10 µM turned out to be 23.9%. For the same compound, in assay [8], the viability at 20 µM came to 93.8%.
With `CN1C(C(=O)/C=C/c2cn(CC(=O)Nc3ccc(F)cc3Br)nn2)=C(O)c2ccccc2S1(=O)=O`, the inhibition at 10 µM in [4] was 59.8%; in assay [5], 63.8%; in assay [6], 65.4%. In addition, the viability at 20 µM in assay [8] was 93.6%.
As to `CN1C(C(=O)/C=C/c2cn(CC(=O)Nc3cccc(F)c3)nn2)=C(O)c2ccccc2S1(=O)=O`, the inhibition result in [1], in [3] and in assay [7] was “Dose-dependent effect” throughout. In addition, the inhibition entry in assay [2] is “inactive”. Further, the values for the inhibition at 10 µM in assay [4], in [5] and in assay [6] were 70.7%, 69.5% and 48.2%, respectively. The viability at 20 µM in [8] was 96.5%. In addition, in [9], the inhibition entry is “Active”.
On to `CN1C(C(=O)/C=C/c2cn(-c3ccccc3F)nn2)=C(O)c2ccccc2S1(=O)=O`, for which the inhibition result in assay [10] and in assay [11] was “inactive” throughout. Besides, the inhibition at 10 µM in assay [5] was 40.2%. In addition, in assay [8], the viability at 20 µM amounted to 96.1%.
For the compound `Cc1ccc(-n2cc(/C=C/C(=O)C3=C(O)c4ccccc4S(=O)(=O)N3C)nn2)cc1`, the inhibition entry in [10] was “inactive”. The figures for the inhibition at 10 µM in assay [5] and in [6] were 50.2% and 45.2%, respectively. Besides, the viability at 20 µM in [8] was determined as 94.3%.
As for `COc1ccc(-n2cc(/C=C/C(=O)C3=C(O)c4ccccc4S(=O)(=O)N3C)nn2)cc1`, in assay [10], the inhibition entry is “inactive”. In addition, the inhibition at 10 µM was found to be 53.9% in assay [5] and 58.9% in [6]. In addition, in assay [8], the viability at 20 µM was found to be 94.4%.
As for `Cc1ccc(-c2cc(C(F)(F)F)nn2-c2ccc(S(N)(=O)=O)cc2)cc1` [CELECOXIB], the inhibition at 10 µM in assay [4] is 37.4%; in assay [5], 31.1%; in [6], 20.1%.
Regarding `CN1C(C(=O)/C=C/c2cn(CC(=O)NC3CCCCC3)nn2)=C(O)c2ccccc2S1(=O)=O`, the inhibition at 10 µM in [4] is 39.7%; in assay [5], 47.7%; in assay [6] it was 56.1%. In addition, the viability at 20 µM in assay [8] came to 95.2%.
For `CN1C(C(=O)/C=C/c2cn(-c3ccc(F)cc3F)nn2)=C(O)c2ccccc2S1(=O)=O`, the inhibition at 10 µM in [4] was 11.2%; in [5], 47.7%; in assay [6] it was 29.6%. For the same compound, the viability at 20 µM in assay [8] is 96.2%.
Turning to `CN1C(C(=O)/C=C/c2cn(-c3ccc([N+](=O)[O-])cc3)nn2)=C(O)c2ccccc2S1(=O)=O`, the inhibition entry in [10] was “inactive”. Besides, the inhibition at 10 µM turned out to be 36.5% in assay [5] and 31.5% in assay [6]. For the same compound, the viability at 20 µM in assay [8] was 93%.
As for `CN1C(C(=O)/C=C/c2cn(-c3ccccc3Br)nn2)=C(O)c2ccccc2S1(=O)=O`, the results for the inhibition at 10 µM in [4], in [5] and in assay [6] were 13.7%, 45.9% and 16.2%, respectively. For the same compound, the viability at 20 µM in [8] was 94.4%.
On the same counts, the results for `CCCCCCCCn1cc(/C=C/C(=O)C2=C(O)c3ccccc3S(=O)(=O)N2C)nn1` are 2.9%, 64.7%, 40.9% and 92.3%.
For `CN1C(C(=O)Nc2ccccn2)=C(O)c2ccccc2S1(=O)=O` [PIROXICAM], the inhibition at 10 µM was determined as 25.8% in [4], 21.8% in assay [5] and 11.4% in assay [6].
In the case of `COc1ccc(NC(=O)Cn2cc(/C=C/C(=O)C3=C(O)c4ccccc4S(=O)(=O)N3C)nn2)cc1`, the results for the inhibition at 10 µM in [4], in [5] and in assay [6] were 62.9%, 49.8% and 64.8%, respectively. The viability at 20 µM in assay [8] is 94.5%.
In the case of `CN1C(C(=O)/C=C/c2cn(-c3ccc(F)c(Cl)c3)nn2)=C(O)c2ccccc2S1(=O)=O`, the inhibition entry in assay [10] and in assay [11] was “inactive” in each case. In addition, the inhibition at 10 µM in assay [5] was 16.3%. Moreover, in assay [8], the viability at 20 µM came out at 94.3%.
For the compound `CN1C(C(=O)/C=C/c2cn(-c3cc([N+](=O)[O-])ccc3Cl)nn2)=C(O)c2ccccc2S1(=O)=O`, the inhibition at 10 µM in [4] is 52.5%; in assay [5], 61.8%; in [6], 67.1%. Besides, the viability at 20 µM in assay [8] came to 94.3%.
As to `CN1C(C(=O)/C=C/c2cn(CC(=O)Nc3c(F)cccc3F)nn2)=C(O)c2ccccc2S1(=O)=O`, the values for the inhibition at 10 µM in [4], in assay [5] and in assay [6] were 31.3%, 46.3% and 41.3%, respectively. For the same compound, in assay [8], the viability at 20 µM came out at 95.6%.
With `CN1C(C(=O)/C=C/c2cn(-c3ccc(C(F)(F)F)cc3)nn2)=C(O)c2ccccc2S1(=O)=O`, in assay [10], the inhibition entry is “inactive”. Also, the inhibition at 10 µM worked out at 17.7% in assay [5] and 12.7% in [6]. In addition, the viability at 20 µM in assay [8] was 96.6%.
`CN1C(C(=O)/C=C/c2cn(CC(=O)Nc3ccc(F)cc3)nn2)=C(O)c2ccccc2S1(=O)=O`: the inhibition at 10 µM in [4] was 73.4%; in assay [5] it was 42.4%; in assay [6], 41.4%. Moreover, the viability at 20 µM in assay [8] came out at 92.5%.
With `CN1C(C(=O)/C=C/c2cn(CC(=O)Nc3ccccc3)nn2)=C(O)c2ccccc2S1(=O)=O`, the inhibition at 10 µM in assay [4] worked out at 33.3%; in [5], 49.3%; in assay [6], 76.7%. The viability at 20 µM in assay [8] was found to be 96.2%.
Take `CN1C(C(=O)/C=C/c2cn(CC(=O)Nc3ccc(C(F)(F)F)cc3)nn2)=C(O)c2ccccc2S1(=O)=O`: the inhibition entry in assay [1], in assay [3] and in assay [7] was “Dose-dependent effect” in each case. Also, the inhibition entry in assay [2] was “inactive”. Moreover, the inhibition at 10 µM in [4] turned out to be 94.2%; in assay [5] it was 91.1%; in assay [6], 81.1%. Moreover, the viability at 20 µM in assay [8] stood at 95.1%. In [9], the inhibition entry is “Active”.
